Broadly, the logP is the decadic logarithm of the partition coefficient of the neutral form, usually between octanol and water. A high value points to a more lipophilic compound.

Consider 15 compounds from the OPERA property sets (Mansouri et al. 2018).

As for `CCCCNc1ccc(C(=O)OCCN(C)C)cc1`, the lipophilicity (logP) came out at 3.51.

With `CCc1cc(CC(C#N)C#N)cc(CC)c1O`, the logP was 4.12. The compound `N[C@@H](Cc1ccccc1)C(=O)O` (racemic) had a logP of -1.38. In the case of `CC(C)(C)S(=O)(=O)CC(Cc1ccccc1)C(=O)NC(Cc1cnc[nH]1)C(=O)NC(CC1CCCCC1)C(O)C(O)C1CC1` (stereo not given) it was 2.75. For the compound `CN1C(C(=O)Nc2ccccn2)=C(O)c2ccccc2S1(=O)=O`, the logP was 3.06. In the case of `COS(=O)c1ccc(O)cc1` (stereo not given) it was 0.58.

`COc1ccc(Cc2nccc3cc(OC)c(OC)cc23)cc1OC` registered a lipophilicity (logP) of 2.95. Compound `N#CC(C#N)Cc1ccc(O)cc1` showed a logP of 3.08.

In turn, `CCN(CC)CCOC(=O)c1ccc(N)cc1` came in with a log partition coefficient (logP) of 2.14. In turn, `Cc1cnc(NC(=O)C2=C(O)c3ccccc3S(=O)(=O)N2C)s1` displayed a lipophilicity (logP) of 3.43. In the case of `COc1ccccc1OCCNCC(O)COc1cccc2[nH]c3ccccc3c12` (stereo not given) it was 4.19. In the case of `O=C1O[C@H]([C@@H](O)CO)C(O)=C1O` it was -1.85; in that of `CCCc1c2c(c(O)c3c(=O)cc(C(=O)O)oc13)CCCC2`, 5. As for `CCCCCCCCCNCc1ccc(C)cc1`, the log partition coefficient (logP) amounted to 5.7.

For the compound `CC(C)(C)S(=O)(=O)CC(Cc1cccc2ccccc12)C(=O)NC(Cc1cnc[nH]1)C(=O)NC(CC1CCCCC1)C(O)C(O)C1CC1` (stereo not given), the logP stood at 3.15.
